From patent publication US9510598B2, “Nitrogen-containing heterocyclic compounds for plant disease control” (BAYER CROPSCIENCE AG, priority 2012, dated 2016) come the findings set out here.

Where two headings read alike, the source gives them in different places.

The format of series [1] is physicochemical.
Another series has as its system Puccinia recondita. The experiment in a line: In vivo preventive test on Puccinia recondita (brown rust on wheat). The settings on record: 500 ppm; wheat plants sprayed 24 hours before contamination; grading 10 days after contamination vs control plants. The method, then: Wheat plants (“Scipion” variety), sown in starter cups on a 50/50 peat soil-pozzolana substrate and grown at 22° C. (12 h)/20° C. (12 h), are treated at the 1-leaf stage (10 cm height) by spraying with the active ingredient prepared as described above. Plants, used as controls, are treated with the mixture of acetone/tween/DMSO/water not containing the active material. After 24 hours, the plants are contaminated by spraying the leaves with an aqueous suspension of Puccinia recondita spores (100 000 spores per ml).

In another series the test system is Septoria tritici. Put plainly: In vivo preventive test on Septoria tritici (leaf spot on wheat). The settings on record: 500 ppm; wheat plants sprayed 24 hours before contamination; grading 21 to 28 days after contamination vs control plants. In outline: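 Scipion wheat at 1-leaf stage sprayed with compound, controls receiving acetone/tween/DMSO/water vehicle; 24 h later leaves inoculated with Septoria tritici spores (500 000 spores per ml). Efficacy (%) graded versus control plants 21 to 28 days after contamination.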

For another series, the system named is Botrytis cinerea. The experiment in a line: In vivo preventive test on Botrytis cinerea (grey mould). The following applies: 500 ppm; gherkin plants sprayed 24 hours before contamination; grading 4-5 days after contamination vs control plants. In outline: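 Gherkin plants ("Vert petit de Paris") sprayed with compound at Z11 cotyledon stage, then inoculated 24 h later with B. cinerea spores (50 000/ml) in PDB/fructose/NH4NO3/KH2PO4 nutrient solution. Incubated at 17 °C, 80% RH; % efficacy versus solvent-treated controls graded 4–5 days after contamination.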

The subject of a further series is Sphaerotheca fuliginea. The experiment in a line: In vivo preventive test on Sphaerotheca fuliginea (powdery mildew on cucurbits). The following applies: 500 ppm; gherkin plants sprayed 24 hours before contamination; grading 12 days after contamination vs control plants. In outline: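 Preventive spray of gherkin plants at Z11 cotyledon stage, grown at 24° C; inoculation 24 hours later with Sphaerotheca fuliginea spores (100 000 spores per ml). Efficacy graded 12 days post-inoculation as % versus solvent-treated control plants.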

In a further series the test system is Phytophthora infestans. The class given is in vivo. The following applies: 500 ppm; tomato plants sprayed 24 hours before contamination; grading 5 days after contamination vs control plants.
In a further series the test system is Alternaria brassicae. The experiment in a line: In vivo preventive test on Alternaria brassicae (leaf spot on radish). The following applies: 500 ppm; radish plants sprayed 24 hours before contamination; grading 5 days after contamination vs control plants. The protocol: Radish plants (“Pernod Clair” variety), sown in starter cups on a 50/50 peat soil-pozzolana substrate and grown at 17° C., are treated at the 2-leaf stage by spraying with the active ingredient prepared as described above. Plants, used as controls, are treated with the mixture of acetone/tween/DMSO/water not containing the active material. After 24 hours, the plants are contaminated by spraying the leaves with an aqueous suspension of Alternaria brassicae spores (50 000 spores per ml). The spores are collected from a 15-day-old culture. […] Grading (% of efficacy) is carried out 5 days after the contamination, in comparison with the control plants.

The next series relates to Uromyces appendiculatus. The experiment in a line: In vivo preventive test on Uromyces appendiculatus (bean rust). The settings on record: 500 ppm; bean plants sprayed 24 hours before contamination; grading 10 days after contamination vs control plants. The protocol: Bean plants (“Saxa” variety), sown in starter cups on a 50/50 peat soil-pozzolana substrate and grown at 24° C., are treated at the 2-leaf stage (9 cm height) by spraying with the active ingredient prepared as described above. Plants, used as controls, are treated with the mixture of acetone/tween/DMSO/water not containing the active material. After 24 hours, the plants are contaminated by spraying the leaves with an aqueous suspension of Uromyces appendiculatus spores (150 000 spores per ml).

Where [2] appears, read: method [a]: HPLC/LC-MS on reversed phase at pH 2.7, 0.1% formic acid in water / acetonitrile, gradient 10% to 95% acetonitrile.
[3] abbreviates: HPLC on reversed phase columns, method [a]: pH 2.7, 0.1% formic acid in water / acetonitrile, linear gradient 10% to 95% acetonitrile.
[4] abbreviates: method [a]: HPLC/LC-MS on reversed phase at pH 2.7, 0.1% formic acid in water / acetonitrile, linear gradient 10% to 95% acetonitrile.

Regarding `CCC#Cc1cnc2ccc(C3=NOC(C)(C(=O)NCc4cn(CC)nc4C)C3)cc2c1` (racemic) [compound 394], the “log P” value in series [1] (setting [2]) is 2.75[a]. Moreover, the “% of efficacy (protection)” value in the series on Puccinia recondita is recorded as 92%.
As to `C#Cc1cnc2ccc(C3=NOC(CC)(C(=O)NC(C)C)C3)cc2c1` (racemic) [compound 446], the “% of efficacy (protection)” value is 100% in the series on Septoria tritici, 98% in the series on Botrytis cinerea, 83% in the series with Puccinia recondita and 94% in the series on Sphaerotheca fuliginea. Also, the “log P” value in series [1] (setting [2]) is 2.76[a].
As for `C#Cc1cnc2ccc(C3=NOC(C)(C(=S)NCc4cnn(C)c4)C3)cc2c1` (racemic) [compound 451], the results for the “% of efficacy (protection)” value in the series on Septoria tritici and in the series on Puccinia recondita were 94% and 89%, respectively. Besides, the “log P” value in series [1] (setting [2]) is 2.62[a].
For the compound `CC1(C(=O)NC2CCC2)CC(c2ccc3ncc(I)cc3c2)=NO1` (racemic) [compound 454], in series [1] (setting [2]), the “log P” value is 3.06[a]. Also, the “% of efficacy (protection)” value with Puccinia recondita is reported as 94%.
In the case of `CCOCCCNC(=O)C1(C)CC(c2ccc3ncc(I)cc3c2)=NO1` (racemic) [compound 456], the “% of efficacy (protection)” value in the series on Septoria tritici was found to be 100%; in the series on Botrytis cinerea, 98%; in the series on Puccinia recondita, 83%; with Sphaerotheca fuliginea, 98%. In addition, in series [1] (setting [2]), the “log P” value is 2.86[a].
As to `C#Cc1cnc2ccc(C3=NOC(OC)(C(=O)N4CCCCO4)C3)cc2c1` (racemic) [compound 457], the results for the “% of efficacy (protection)” value in the series on Septoria tritici and in the series with Puccinia recondita were 88% and 83%, respectively. The “log P” value in series [1] (setting [2]) was 2.41[a].
Turning to `CCn1cc(CNC(=O)C2(C)CC(c3cc(Cl)c4ncc(Br)cc4c3)=NO2)c(C)n1` (racemic) [compound 548], the “% of efficacy (protection)” value in the series on Septoria tritici is 100%; with Botrytis cinerea, 94%; with Puccinia recondita, 83%; in the series on Sphaerotheca fuliginea, 80%. Further, the “log P” value in series [1] (setting [3]) was 2.77[a].
Turning to `C#Cc1cnc2ccc(C3=NOC(C)(C(=O)NCC4OCCc5ccccc54)C3)cc2c1` (single isomer, unassigned) [compound 262], the “log P” value in series [1] (setting [3]) is 3.13^[a]. The results for the “% of efficacy (protection)” value in the series with Botrytis cinerea and in the series on Puccinia recondita were 95% and 81%, respectively.
Regarding `CCCn1cc(CNC(=O)C2(OC)CC(c3ccc4ncc(Br)cc4c3)=NO2)c(C)n1` (stereo not drawn) [compound 50], the “% of efficacy (protection)” value in the series with Septoria tritici is recorded as 100%; with Botrytis cinerea it was 100%; in the series on Puccinia recondita it was 88%; in the series with Sphaerotheca fuliginea, 100%; in the series with Phytophthora infestans, 100%.
On to `CCn1cc(CNC(=O)C2(C)CC(c3ccc4ncc(OC)cc4c3)=NO2)c(C)n1` (stereo not drawn) [compound 135], for which the “% of efficacy (protection)” value in the series with Septoria tritici turned out to be 100%; in the series on Alternaria brassicae, 100%; with Puccinia recondita, 89%. For the same compound, in series [1] (setting [4]), the “log P” value was 1.83^[a].
Take `CC(C)NC(=O)C1(C)CC(c2ccc3ncc(S(C)(=O)=O)cc3c2)=NO1` (stereo not drawn) [compound 146]: the “log P” value in series [1] (setting [4]) was 1.81^[a]. Moreover, the “% of efficacy (protection)” value in the series with Puccinia recondita came out at 72%; in the series on Phytophthora infestans, 85%.
For `C#Cc1cnc2ccc(C3=NOC(C)(C(=O)NCc4ncc(C(F)(F)F)cc4Cl)C3)cc2c1` (stereo not drawn) [compound 157], the “log P” value in series [1] (setting [4]) is 3.48^[a]. Besides, the “% of efficacy (protection)” value in the series on Puccinia recondita came to 72%.
Regarding `CC(NC(=O)C1(C)CC(c2ccc3ncc(Br)cc3c2)=NO1)c1ccccn1` (stereo not drawn) [compound 205], the “% of efficacy (protection)” value with Septoria tritici was 100%; in the series on Botrytis cinerea it was 84%; with Uromyces appendiculatus, 70%; with Sphaerotheca fuliginea it was 75%. Also, the “log P” value in series [1] (setting [4]) was 2.14^[a].
With `CCn1cc(CNC(=O)C2(C)CC(c3ccc4ncc(C)cc4c3)=NO2)c(C)n1` (stereo not drawn) [compound 257], the “log P” value in series [1] (setting [3]) is 1.46^[a]. For the same compound, the “% of efficacy (protection)” value in the series on Puccinia recondita is recorded as 81%; in the series with Phytophthora infestans, 100%.
In the case of `COCC(COC)NC(=O)C1(C)CC(c2ccc3ncc(Br)cc3c2)=NO1` (stereo not drawn) [compound 305], the “log P” value in series [1] (setting [3]) is 2.56[a]. In addition, the “% of efficacy (protection)” value in the series on Uromyces appendiculatus amounted to 80%.
As to `CC(C)NC(=O)C1(C)ON=C(c2ccc3ncc(Br)cc3c2)C1C(F)(F)F` (stereo not drawn) [compound 423], the “log P” value in series [1] (setting [2]) was 3.71[a]. Moreover, the “% of efficacy (protection)” value amounted to 83% in the series on Alternaria brassicae and 78% in the series on Puccinia recondita.
As for `CCCn1cc(CNC(=O)C2(CC3CC3)CC(c3ccc4ncc(Br)cc4c3)=NO2)c(C)n1` (stereo not drawn) [compound 424], the “log P” value in series [1] (setting [2]) was 3.33[a]. In addition, the “% of efficacy (protection)” value in the series with Puccinia recondita was found to be 72%.
`C#Cc1cnc2ccc(C3=NOC(OC)(C(=O)N(CC(F)F)C(C)C)C3)cc2c1` (stereo not drawn) [compound 469]: the entries for the “% of efficacy (protection)” value in the series on Septoria tritici and with Puccinia recondita were 97% and 80%, respectively. Moreover, in series [1] (setting [2]), the “log P” value was 3.60[a].
For `C#Cc1cnc2ccc(C3=NOC(OC)(C(=O)NC4CC4)C3)cc2c1` (stereo not drawn) [compound 504], the “% of efficacy (protection)” value turned out to be 100% with Septoria tritici, 99% in the series on Botrytis cinerea, 72% with Puccinia recondita and 100% in the series with Sphaerotheca fuliginea. In series [1] (setting [2]), the “log P” value was 2.08[a].
On to `C#Cc1cnc2ccc(C3=NOC(C)(C(=O)NCc4ccsc4)C3)cc2c1` (stereo not drawn) [compound 515], for which the “% of efficacy (protection)” value stood at 97% with Septoria tritici, 100% in the series with Botrytis cinerea, 91% with Uromyces appendiculatus and 93% with Sphaerotheca fuliginea. The “log P” value in series [1] (setting [3]) was 2.71[a].
With `CSC1(C(=O)NC(C)C)CC(c2ccc3ncc(Br)cc3c2)=NO1` (stereo not drawn) [compound 530], in series [1] (setting [3]), the “log P” value was 2.88[a]. Moreover, the “% of efficacy (protection)” value in the series with Botrytis cinerea amounted to 100%; with Puccinia recondita it was 79%.
In the case of `C#Cc1cnc2c(C)cc(C3=NOC(C)(C(=O)NCC4COC(C)(C)O4)C3)cc2c1` (stereo not drawn) [compound 536], the “% of efficacy (protection)” value in the series on Septoria tritici came out at 100%; with Botrytis cinerea, 100%; in the series with Puccinia recondita it was 72%; in the series on Sphaerotheca fuliginea it was 100%. Besides, in series [1] (setting [3]), the “log P” value is 2.98[a].
Take `CCCn1cc(CNC(=O)C2(OC)CC(c3cc(Cl)c4ncc(Br)cc4c3)=NO2)c(C)n1` (stereo not drawn) [compound 567]: the “% of efficacy (protection)” value with Septoria tritici is listed as 100%; in the series with Botrytis cinerea, 100%; in the series with Puccinia recondita it was 75%; with Sphaerotheca fuliginea it was 100%. The “log P” value in series [1] (setting [3]) was 3.08[a].
On to `C=CC1(C(=O)NCc2cn(CC)nc2C)CC(c2ccc3ncc(Br)cc3c2)=NO1` (stereo not drawn) [compound 599], for which the “% of efficacy (protection)” value with Septoria tritici turned out to be 100%; with Botrytis cinerea it was 100%; in the series with Puccinia recondita, 88%; with Sphaerotheca fuliginea, 100%; in the series with Phytophthora infestans it was 85%. Besides, the “log P” value in series [1] (setting [3]) was 2.61[a].
On to `CCn1cc(CNC(=O)C2(C(F)F)CC(c3ccc4ncc(I)cc4c3)=NO2)c(C)n1` (stereo not drawn) [compound 617], for which the “log P” value in series [1] (setting [3]) is 2.73[a]. Also, the “% of efficacy (protection)” value with Botrytis cinerea is recorded as 95%; with Puccinia recondita, 71%; in the series with Sphaerotheca fuliginea, 100%.
With `C#Cc1cnc2ccc(C3=NOC(C=C)(C(=O)NCc4cn(CC)nc4C)C3)cc2c1` (stereo not drawn) [compound 724], the “% of efficacy (protection)” value in the series on Septoria tritici was found to be 100%; in the series with Botrytis cinerea, 98%; in the series on Puccinia recondita, 71%; in the series on Sphaerotheca fuliginea, 100%; in the series with Phytophthora infestans, 100%. In series [1] (HPLC on reversed phase columns, method [a]: pH 2.7, 0.1% formic acid in water and acetonitrile, linear gradient 10% to 95% acetonitrile), the “log P” value was 2.37[a].
